Source: patent US20230181536A1, “ANTICANCER COMBINATION THERAPY WITH N-(1-ACRYLOYL-AZETIDIN-3-YL)-2-((1H-INDAZOL-3-YL)AMINO)METHYL)-1H-IMIDAZOLE-5-CARBOXAMIDE INHIBITOR OF KRAS-G12C” (TAIHO PHARMACEUTICAL CO., LTD., priority 2020, published 2023)

Target: T1, KRAS G12C (Homo sapiens, UniProt P01116, G12C)
T1 construct: KRAS G12C (amino acid region: 1-169)
Experiment: Inhibitory activity on the KRAS G12C nucleotide (GDP-GTP) exchange reaction
Type: biochemical
Settings: Bodipy FL GDP-bound KRAS G12C 25 nM; preincubation at 25° C. for 4 hours; SOS1 100 nM, GppNHp 1 μM, reaction for 30 minutes
In short: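 Bodipy FL-GDP-loaded KRAS G12C (aa 1-169, 25 nM) preincubated with compound 4 h at 25 °C in pH 7.5 Tris buffer, 5% DMSO; exchange started with SOS1 (aa 564-1049, 100 nM) and 1 μM GppNHp for 30 min. Fluorescence change (ex 485/em 520 nm) normalized to DMSO and no-GppNHp controls; IC50 calculated.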

T1 sequence (P01116 1-169 isoform P01116-2 G12C): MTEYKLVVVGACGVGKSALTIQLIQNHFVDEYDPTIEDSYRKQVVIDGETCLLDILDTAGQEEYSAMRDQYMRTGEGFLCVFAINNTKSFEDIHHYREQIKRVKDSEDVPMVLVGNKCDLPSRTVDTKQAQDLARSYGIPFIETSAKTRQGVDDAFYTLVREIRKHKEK

SMILES: COC/C=C/C(=O)N1CC(NC(=O)c2c(C)nc(CNc3n[nH]c4cc(Cl)c(C(C)(C)C)cc34)n2C(C)C)C1 [Example 85, (E)-2-(((5-(tert-butyl)-6-chloro-1H-indazol-3-yl)amino)methyl)-1-isopropyl-N-(1-(4-methoxybut-2-enoyl)azetidin-3-yl)-4-methyl-1H-imidazole-5-carboxamide]
- IC50: 196 nM

SMILES: C=CS(=O)(=O)N1CC(NC(=O)c2c(C)nc(CNc3n[nH]c4cc(Cl)c(C(C)(C)C)cc34)n2C(C)C)C1 [Example 86, 2-(((5-(tert-butyl)-6-chloro-1H-indazol-3-yl)amino)methyl)-1-isopropyl-4-methyl-N-(1-(vinylsulfonyl)azetidin-3-yl)-1H-imidazole-5-carboxamide]
- IC50: 58 nM

SMILES: C=CC(=O)N1CC(NC(=O)c2c(Cl)nc(CNc3n[nH]c4cc(Cl)c(C(C)(C)C)cc34)n2CCCC)C1 [Example 87, N-(1-acryloylazetidin-3-yl)-1-butyl-2-(((5-(tert-butyl)-6-chloro-1H-indazol-3-yl)amino)methyl)-4-chloro-1H-imidazole-5-carboxamide]
- IC50: 14 nM

SMILES: C=CC(=O)N1CC(NC(=O)c2cnc(CNc3n[nH]c4cc(Cl)c(C(C)(C)C)cc34)n2Cc2cc(OC)cc(OC)c2)C1 [Example 88, N-(1-acryloylazetidin-3-yl)-2-(((5-(tert-butyl)-6-chloro-1H-indazol-3-yl)amino)methyl)-1-(3,5-dimethoxybenzyl)-1H-imidazole-5-carboxamide]
- IC50: 158 nM

SMILES: C=CC(=O)N1CC(NC(=O)c2c(Cl)nc(CNc3n[nH]c4cc(Cl)c(C(C)(C)C)cc34)n2CC(C)C)C1 [Example 89, N-(1-acryloylazetidin-3-yl)-2-(((5-(tert-butyl)-6-chloro-1H-indazol-3-yl)amino)methyl)-4-chloro-1-isobutyl-1H-imidazole-5-carboxamide]
- IC50: 7 nM

SMILES: C=CC(=O)N1CC(NC(=O)c2c(Cl)nc(CNc3n[nH]c4cc(Cl)c(C(C)(C)C)cc34)n2CCOC)C1 [Example 90, N-(1-acryloylazetidin-3-yl)-2-(((5-(tert-butyl)-6-chloro-1H-indazol-3-yl)amino)methyl)-4-chloro-1-(2-methoxyethyl)-1H-imidazole-5-carboxamide]
- IC50: 6 nM

SMILES: C=CC(=O)N1CC(NC(=O)c2c(C(F)F)nc(CNc3n[nH]c4cc(Cl)c(C(C)(C)C)cc34)n2C2CCN(C)C2)C1 (stereo not shown) [Example 91, N-(1-acryloylazetidin-3-yl)-2-(((5-(tert-butyl)-6-chloro-1H-indazol-3-yl)amino)methyl)-4-(difluoromethyl)-1-(1-methylpyrrolidin-3-yl)-1H-imidazole-5-carboxamide]
- IC50: 7 nM

SMILES: C=CC(=O)N1CC(NC(=O)c2c(C(F)F)nc(CNc3n[nH]c4cc(Cl)c(C(C)(C)C)cc34)n2C2CCN(CC)C2)C1 (stereo not shown) [Example 92, N-(1-acryloylazetidin-3-yl)-2-(((5-(tert-butyl)-6-chloro-1H-indazol-3-yl)amino)methyl)-4-(difluoromethyl)-1-(1-ethylpyrrolidin-3-yl)-1H-imidazole-5-carboxamide]
- IC50: 10 nM

SMILES: C=CC(=O)N1CC(NC(=O)c2c(Cl)nc(CNc3n[nH]c4cc(Cl)c(C(C)(C)C)cc34)n2-c2ccccn2)C1 [Example 94, N-(1-acryloylazetidin-3-yl)-2-(((5-(tert-butyl)-6-chloro-1H-indazol-3-yl)amino)methyl)-4-chloro-1-(pyridin-2-yl)-1H-imidazole-5-carboxamide]
- IC50: 118 nM

SMILES: C=CC(=O)N1CC(NC(=O)c2c(C(F)F)nc(CNc3n[nH]c4cc(Cl)c(C(C)(C)C)cc34)n2CC2CCCN2C(C)C)C1 (stereo not shown) [Example 95, N-(1-acryloylazetidin-3-yl)-2-(((5-(tert-butyl)-6-chloro-1H-indazol-3-yl)amino)methyl)-4-(difluoromethyl)-1-((1-isopropylpyrrolidine-2-yl)methyl)-1H-imidazole-5-carboxamide]
- IC50: 44 nM

SMILES: C=CC(=O)N1CC(NC(=O)c2c(C(F)F)nc(CNc3n[nH]c4cc(Cl)c(C(C)(C)C)cc34)n2C2CCN(C(C)=O)C2)C1 (stereo not shown) [Example 96, 1-(1-Acetylpyrrolidin-3-yl)-N-(1-acryloylazetidin-3-yl)-2-(((5-(tert-butyl)-6-chloro-1H-indazol-3-yl)amino)methyl)-4-(difluoromethyl)-1H-imidazole-5-carboxamide]
- IC50: 4 nM

SMILES: C=CC(=O)N1CC(NC(=O)c2c(Cl)nc(CNc3n[nH]c4cc(Cl)c(C(C)(C)C)cc34)n2[C@H]2CCOC2)C1 [Example 97, (S)-N-(1-acryloylazetidin-3-yl)-2-(((5-(tert-butyl)-6-chloro-1H-indazol-3-yl)amino)methyl)-4-chloro-1-(tetrahydrofuran-3-yl)-1H-imidazole-5-carboxamide]
- IC50: 4 nM

SMILES: C=CC(=O)N1CC(NC(=O)c2c(Cl)nc(CNc3n[nH]c4cc(Cl)c(C(C)(C)C)cc34)n2C2CC=CC2)C1 [Example 98, N-(1-acryloylazetidin-3-yl)-2-(((5-(tert-butyl)-6-chloro-1H-indazol-3-yl)amino)methyl)-4-chloro-1-(cyclopent-3-en-1-yl)-1H-imidazole-5-carboxamide]
- IC50: 7 nM

SMILES: C=CC(=O)N1CC(NC(=O)c2c(Cl)nc(CNc3n[nH]c4cc(Cl)c(C(C)(C)C)cc34)n2[C@@H]2C[C@@H](O)[C@@H](O)C2)C1 [Example 99]
- IC50: 7 nM

SMILES: C=CC(=O)N1CC(NC(=O)c2c(Cl)nc(CNc3n[nH]c4cc(Cl)c(C(C)(C)C)cc34)n2CC(F)F)C1 [Example 100, N-(1-acryloylazetidin-3-yl)-2-(((5-(tert-butyl)-6-chloro-1H-indazol-3-yl)amino)methyl)-4-chloro-1-(2,2-difluoroethyl)-1H-imidazole-5-carboxamide]
- IC50: 14 nM

SMILES: C=CC(=O)N1CC(NC(=O)c2c(Cl)nc(CNc3n[nH]c4cc(Cl)c(C(C)(C)C)cc34)n2C2CCOCC2)C1 [Example 101, N-(1-acryloylazetidin-3-yl)-2-(((5-(tert-butyl)-6-chloro-1H-indazol-3-yl)amino)methyl)-4-chloro-1-(tetrahydro-2H-pyran-4-yl)-1H-imidazole-5-carboxamide]
- IC50: 7 nM

SMILES: C=CC(=O)N1CC(NC(=O)c2c(Cl)nc(CNc3n[nH]c4cc(Cl)c(C(C)(C)C)cc34)n2[C@@H]2CCOC2)C1 [Example 102, (R)-N-(1-acryloylazetidin-3-yl)-2-(((5-(tert-butyl)-6-chloro-1H-indazol-3-yl)amino)methyl)-4-chloro-1-(tetrahydrofuran-3-yl)-1H-imidazole-5-carboxamide]
- IC50: 5 nM

SMILES: C=CC(=O)N1CC(NC(=O)c2c(Cl)nc(CNc3n[nH]c4cc(Cl)c(C(C)(C)C)cc34)n2C2CCN(C)CC2)C1 [Example 103, N-(1-acryloylazetidin-3-yl)-2-(((5-(tert-butyl)-6-chloro-1H-indazol-3-yl)amino)methyl)-4-chloro-1-(1-methylpiperidin-4-yl)-1H-imidazole-5-carboxamide]
- IC50: 5 nM

SMILES: C=CC(=O)N1CC(NC(=O)c2c(Cl)nc(CNc3n[nH]c4cc(Cl)c(C(C)(C)C)cc34)n2C2CCCOC2)C1 (stereo not shown) [Example 104, N-(1-acryloylazetidin-3-yl)-2-(((5-(tert-butyl)-6-chloro-1H-indazol-3-yl)amino)methyl)-4-chloro-1-(tetrahydro-2H-pyran-3-yl)-1H-imidazole-5-carboxamide]
- IC50: 9 nM

SMILES: C=CC(=O)N1CC(NC(=O)c2c(Cl)nc(CNc3n[nH]c4cc(Cl)c(C(C)(C)C)cc34)n2C2CCCC2)C1 [Example 105, N-(1-acryloylazetidin-3-yl)-2-(((5-(tert-butyl)-6-chloro-1H-indazol-3-yl)amino)methyl)-4-chloro-1-cyclopentyl-1H-imidazole-5-carboxamide]
- IC50: 8 nM

SMILES: C=CC(=O)N1CC(NC(=O)c2c(Cl)nc(CNc3n[nH]c4cc(Cl)c(C(C)(C)C)cc34)n2C2CN(C(=O)OC(C)(C)C)C2)C1 [Example 106, Tert-butyl 3-(5-((1-acryloylazetidin-3-yl)carbamoyl)-2-(((5-(tert-butyl)-6-chloro-1H-indazol-3-yl)amino)methyl)-4-chloro-1H-imidazol-1-yl)azetidine-1-carboxylate]
- IC50: 8 nM

SMILES: C=CC(=O)N1CC(NC(=O)c2c(Cl)nc(CNc3n[nH]c4cc(Cl)c(C(C)(C)C)cc34)n2C2CN(C(C)C)C2)C1 [Example 107, N-(1-acryloylazetidin-3-yl)-2-(((5-(tert-butyl)-6-chloro-1H-indazol-3-yl)amino)methyl)-4-chloro-1-(1-isopropylazetidin-3-yl)-1H-imidazole-5-carboxamide]
- IC50: 4 nM

SMILES: C=CC(=O)N1CC(NC(=O)c2c(Cl)nc(CNc3n[nH]c4cc(Cl)c(C(C)(C)C)cc34)n2C2CN(C(C)=O)C2)C1 [Example 108, 1-(1-acetylazetidin-3-yl)-N-(1-acryloylazetidin-3-yl)-2-(((5-(tert-butyl)-6-chloro-1H-indazol-3-yl)amino)methyl)-4-chloro-1H-imidazole-5-carboxamide]
- IC50: 9 nM

SMILES: C=CC(=O)N1CC(NC(=O)c2c(Cl)nc(CNc3n[nH]c4cc(Cl)c(C(C)(C)C)cc34)n2C2CCCCC2)C1 [Example 109, N-(1-acryloylazetidin-3-yl)-2-(((5-(tert-butyl)-6-chloro-1H-indazol-3-yl)amino)methyl)-4-chloro-1-cyclohexyl-1H-imidazole-5-carboxamide]
- IC50: 23 nM

SMILES: C=CC(=O)N1CC(NC(=O)c2c(Cl)nc(CNc3n[nH]c4cc(Cl)c(C(C)(C)C)cc34)n2CC2CCCC2)C1 [Example 110, N-(1-acryloylazetidin-3-yl)-2-(((5-(tert-butyl)-6-chloro-1H-indazol-3-yl)amino)methyl)-4-chloro-1-(cyclopentylmethyl)-1H-imidazole-5-carboxamide]
- IC50: 9 nM
